“And” between values parts separate entries of the source, which are not always exact repeats. Equal entries are not always repeated.
Legend:
Assay in all cases: Cytokine-stimulated phosphorylation in immunophenotypically defined cell populations from healthy donor BM (flow cytometry);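 as to pERK S/N ratio: Phosphoprotein MFI normalized to lymphocyte MFI as internal negative control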;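 as to pS6 S/N ratio: Phosphoprotein MFI normalized to lymphocyte MFI as internal negative control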
Assay type in all cases: cell-based, human
[1] = tested on: pERK; settings: healthy donor BM, mean ± SD;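 as to pERK S/N ratio: Phosphoprotein MFI normalized to lymphocyte MFI as internal negative control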
Description: (§1) Bone marrow (BM) samples were collected in 7.5 mL Iscove's modified Dulbecco's medium (IMDM) supplemented with 100U penicillin, 0.01 mg/mL streptomycin, and 70 μg/mL heparin sodium salt from 10 patients undergoing hip replacement surgery, who were otherwise healthy. These patients were from a pool of surgery patients, age 49 to 77, and represented […] patients. […] These BM samples were rinsed twice with IMDM to release cells, filtered using a 100 μm Nylon cell strainer to remove marrow particles, and centrifuged for at RT fro 7 minutes at 200 g. The cell pellet was washed twice with sterile IMDM to remove traces of fat and re-suspended in IMDM to a concentration of 3×10^7 cells/mL.
(§2) To assess the signal transduction response after growth factor simulation, a series comprising two sets of tubes including about 3×10^6 cells/100 μL were incubated at 37° C. for 30 minutes. After this pre-incubation period, tubes with then processes with either a stimulant or inhibitor. […] To examine the effects of protein phosphorylation inhibition, tubes were incubated with an inhibitor cocktail comprising 100 μM/100 μL UO126, 1 μM/100 μL LY294002, and 1 μM/100 μL rapamycin. One unstimulated tube receiving no stimulant or inhibitor was processed to assess basal levels of phospho-protein expression. After stimulation the cells were immediately fixed in 10% formaldehyde solution at 37° C. Pre-labeling with CD13, CD16 and CD64 antibodies was carried out 20 minutes prior to formaldehyde fixation. After fixation, one set of tubes was permeabilized without methanol for pAKT, pERK and pS6 staining and the other for 80% methanol permeabilized for pSTAT3 and pSTAT5 staining. After permeablization, the cells were washed in PBS with 2% BSA and blocked by re-suspended in 75 μL of PBS comprising 25% heat inactivated normal mouse serum, 25% normal rabbit serum. To stain cells with fluorescent conjugated monoclonal antibodies, samples were incubated on ice for 45 minutes in 100 μL of an antibody staining solution including either: 1) CD15-Pacific Orange, CD34-Phycoerythrin-Texas Red, CD117-Phycoerythrin-Cyanin 5.5, CD45-Allophycocyanin-Alexa Fluor 750 (or CD45-Pacific Orange, in which case CD15-Pacific Orange was omitted), pS6-Pacific Blue, pERK-Alexa Fluor 488 and pAKT-Alexa Fluor 647 or 2) CD15-Pacific Orange, CD34-Phycoerythrin-Texas Red, CD117-Phycoerythrin-Cyanin 5.5, CD45-Allophycocyanin-Alexa Fluor 750 or CD45-Pacific Blue, pSTAT3-Alexa Fluor 488 and pSTAT5-Phycoerythrin. The stained cells were washed twice with ice cold PBS containing 2% BSA and centrifuged at 800 g for 6 minutes at 4° C. The supernatant was discarded and cells re-suspended in 250 μL of chilled wash buffer for data acquisition. Stained cells were examined using either GALIOS flow cytometer (Beckman Coulter) or CYAN ADP (Beckman Coulter) equipped with 488 nm, 405 nm and 635 nm lasers to detect the degree of fluorescence. Data were analyzed using FCS Express (De Novo Software, CA) analysis software.
(§3) Specific phosphoprotein expression of pERK, pS6, pAKT, pSTAT5, and pSTAT3 was examined in seven discrete phenotypically defined populations based on 7-color immunophenotyping (FIG. 1). The percent of responding (phosphorprotein positive) cells for each of these populations was determined from individual single parameter histograms based on a fixed integration region set on the inhibitor treated control at about 3% positives.

[2] = tested on: pS6; settings: healthy donor BM, mean ± SD;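 as to pS6 S/N ratio: Phosphoprotein MFI normalized to lymphocyte MFI as internal negative control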
Description: as §1, §2, §3

[3] = tested on: pSTAT5; settings: for pSTAT5 Percent (%) Responding Cells, Mean / pSTAT5 S/N ratio: healthy donor BM, mean ± SD
Description: as §1, §2, §3

[4] = tested on: pSTAT3; settings: healthy donor BM, mean ± SD
Description: as §1, §2, §3

[5] = tested on: pAKT; settings: for pAKT Percent (%) Responding Cells, Mean / pAKT S/N ratio: healthy donor BM, mean ± SD
Description: as §1, §2, §3

Granulocyte-Macrophage Colony-Stimulating Factor [GM-CSF]
pERK Percent (%) Responding Cells, Mean ([1]; CD34^+ (CD34^+/CD117^+ cells)): 30.1% and 30.1 ± 11.5%
pERK S/N ratio ([1]; CD34^+ (CD34^+/CD117^+ cells)): 10.6 ± 4.4
pERK S/N ratio ([1]; CD117^+ (CD34^−/CD117^+ cells)): 3.8 ± 0.4
pERK Percent (%) Responding Cells, Mean ([1]; G1, immature myeloid cells): 53.9% and 53.9 ± 20.8%
pERK S/N ratio ([1]; G1, immature myeloid cells): 6.2 ± 1.8
pERK Percent (%) Responding Cells, Mean ([1]; G2, intermediate myeloid cells): 91.5 ± 16.0%
pERK S/N ratio ([1]; G2, intermediate myeloid cells): 9.4 ± 2.4
pERK Percent (%) Responding Cells, Mean ([1]; G3, mature myeloid cells): 91.5% and 90.7 ± 15.0%
pERK S/N ratio ([1]; G3, mature myeloid cells): 11.3 ± 3.1
pERK Percent (%) Responding Cells, Mean ([1]; Mono, monocytes): 52.0 ± 22.6%
pERK S/N ratio ([1]; Mono, monocytes): 11.4 ± 4.5
pS6 Percent (%) Responding Cells, Mean ([2]; CD34^+ (CD34^+/CD117^+ cells)): 60.1% and 60.1 ± 14.1%
pS6 S/N ratio ([2]; CD34^+ (CD34^+/CD117^+ cells)): 35.7 ± 31.7
pS6 Percent (%) Responding Cells, Mean ([2]; CD117^+ (CD34^−/CD117^+ cells)): 38.5 ± 11.5%
pS6 S/N ratio ([2]; CD117^+ (CD34^−/CD117^+ cells)): 52.7 ± 44.0
pS6 Percent (%) Responding Cells, Mean ([2]; G1, immature myeloid cells): 3.4 ± 1.3%
pS6 S/N ratio ([2]; G1, immature myeloid cells): 5.1 ± 3.2
pS6 Percent (%) Responding Cells, Mean ([2]; G2, intermediate myeloid cells): 11.3 ± 15.9%
pS6 S/N ratio ([2]; G2, intermediate myeloid cells): 5.7 ± 3.7
pS6 Percent (%) Responding Cells, Mean ([2]; G3, mature myeloid cells): 8.3 ± 7.0%
pS6 S/N ratio ([2]; G3, mature myeloid cells): 5.7 ± 3.6
pS6 Percent (%) Responding Cells, Mean ([2]; Mono, monocytes): 76.9 ± 11.8%
pS6 S/N ratio ([2]; Mono, monocytes): 25.8 ± 20.8
pSTAT5 Percent (%) Responding Cells, Mean ([3]; CD34^+ (CD34^+/CD117^+ cells)): 74.7%
pSTAT5 S/N ratio ([3]; CD34^+ (CD34^+/CD117^+ cells)): 19.8 ± 9.7
pSTAT5 Percent (%) Responding Cells, Mean ([3]; CD117^+ (CD34^−/CD117^+ cells)): 58.2 ± 11.8%
pSTAT5 Percent (%) Responding Cells, Mean ([3]; G2, intermediate myeloid cells): 98.8 ± 0.4%
pSTAT5 S/N ratio ([3]; G2, intermediate myeloid cells): 18.3 ± 5.5
pSTAT5 S/N ratio ([3]; Mono, monocytes): 14.7 ± 4.5
pSTAT5, Normal Sample ([3]; Table 7 comparison value, matches percent responding CD34^+ cells of Tables 1-5): 74.7 and 75.1
pSTAT3 Percent (%) Responding Cells, Mean ([4]; CD34^+ (CD34^+/CD117^+ cells)): 10.4 ± 7.9%
pSTAT3 S/N ratio ([4]; CD34^+ (CD34^+/CD117^+ cells)): 1.7 ± 0.2
pSTAT3 Percent (%) Responding Cells, Mean ([4]; CD117^+ (CD34^−/CD117^+ cells)): 7.9 ± 8.7%
pSTAT3 S/N ratio ([4]; CD117^+ (CD34^−/CD117^+ cells)): 2.6 ± 0.8
pSTAT3 Percent (%) Responding Cells, Mean ([4]; G1, immature myeloid cells): 58.7% and 58.7 ± 39.9%
pSTAT3 S/N ratio ([4]; G1, immature myeloid cells): 6.8 ± 2.5
pSTAT3 Percent (%) Responding Cells, Mean ([4]; G2, intermediate myeloid cells): 59.1 ± 30.4%
pSTAT3 S/N ratio ([4]; G2, intermediate myeloid cells): 7.3 ± 2.1
pSTAT3 Percent (%) Responding Cells, Mean ([4]; G3, mature myeloid cells): 76.0 ± 30.8%
pSTAT3 S/N ratio ([4]; G3, mature myeloid cells): 8.8 ± 2.7
pSTAT3 S/N ratio ([4]; Mono, monocytes): 2.3 ± 0.3
pAKT Percent (%) Responding Cells, Mean ([5]; CD34^+ (CD34^+/CD117^+ cells)): 22.5 ± 23.4%
pAKT S/N ratio ([5]; CD34^+ (CD34^+/CD117^+ cells)): 3.2 ± 3.3
pAKT Percent (%) Responding Cells, Mean ([5]; CD117^+ (CD34^−/CD117^+ cells)): 13.3 ± 23.7%
pAKT S/N ratio ([5]; CD117^+ (CD34^−/CD117^+ cells)): 2.2 ± 1.3
pAKT Percent (%) Responding Cells, Mean ([5]; G1, immature myeloid cells): 11.2 ± 19.8%
pAKT S/N ratio ([5]; G1, immature myeloid cells): 3.0 ± 1.6
pAKT Percent (%) Responding Cells, Mean ([5]; G2, intermediate myeloid cells): 17.6 ± 26.1%
pAKT S/N ratio ([5]; G2, intermediate myeloid cells): 3.2 ± 1.6
pAKT Percent (%) Responding Cells, Mean ([5]; G3, mature myeloid cells): 17.5 ± 26.0%
pAKT S/N ratio ([5]; G3, mature myeloid cells): 3.7 ± 1.9
pAKT Percent (%) Responding Cells, Mean ([5]; Mono, monocytes): 17.6 ± 27.3%
pAKT S/N ratio ([5]; Mono, monocytes): 3.6 ± 2.3
pAKT, Normal Sample ([5]; Table 7 comparison value): 16.2

Reference: patent US20130210034A1, “COMPLEX PHOSPHOPROTEIN ACTIVATION PROFILES” (BECKMAN COULTER, INC., priority 2005, published 2013)
